Laboratory results from US20260250318A1, “COMPOSITIONS AND METHODS FOR CROSSING THE BLOOD BRAIN BARRIER” (VOYAGER THERAPEUTICS, INC., priority 2022, published 2026).

How the values were obtained:
[1] = system: brains, heart, liver, muscle, and DRG of the NHPs; experiment: Maturation of TTM-001 and TTM-002 capsids, NGS enrichment in NHP tissues; format: in vivo; details: relative to AAV9 control
Procedure, shortened: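 Variants carry mutations within and flanking the loop IV peptide insert: positions 450–466 were triplet-randomized, while positions 449–466 received low-frequency point mutations. The combined pool went into two NHPs, and each peptide was scored by NGS enrichment ratio against AAV9.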

brain = experiment: Matured TTM-001 and TTM-002 variants, NGS enrichment in mouse brain; format: in vivo, mice; details: relative to AAV9 control
[2] = NGS fold-enrichment of RNA, NHP brain
[3] = NGS fold-enrichment, NHP liver DNA
[4] = NGS fold-enrichment, NHP liver RNA
[5] = NGS fold-enrichment, NHP muscle
[6] = NGS fold-enrichment, mouse brain
[7] = NGS fold-enrichment, DRG of NHPs
[8] = NGS fold-enrichment, RNA, brain of NHPs
[9] = NGS fold-enrichment, heart of NHPs
[10] = NGS fold-enrichment, liver DNA of NHPs
[11] = NGS fold-enrichment, liver RNA of NHPs
[12] = NGS fold-enrichment, muscle of NHPs
[13] = NGS fold-enrichment, brain of mice

Row | Sequence | Fold Enrichment relative to AAV9, Brain (NHP) [1, 2] [fold] | Fold Enrichment relative to AAV9, DRG (NHP) ([1]; NGS fold-enrichment, NHP DRG) [fold] | Fold Enrichment relative to AAV9, Heart (NHP) ([1]; NGS fold-enrichment, NHP heart) [fold] | Fold Enrichment relative to AAV9, Liver DNA (NHP) [1, 3] [fold] | Fold Enrichment relative to AAV9, Liver RNA (NHP) [1, 4] [fold] | Fold Enrichment relative to AAV9, Muscle (NHP) [1, 5] [fold] | Fold Enrichment relative to AAV9, Brain (Mouse) (brain; [6]) [fold] | further results
1 | KTINGHDSPHKSRLNQPT | 92.883 | 0.000 | 0.070 | 1.075 | 0.904 | 0.050 | 5.598 | –
2 | KTINGHDSPHKSRQDQHT | 75.595 | 0.000 | 0.049 | 0.045 | 0.030 | 0.118 | 8.540 | –
3 | KTINGHDSPHKSRQSQHT | 88.544 | 0.499 | 0.046 | 0.032 | 0.059 | 0.000 | 8.324 | –
4 | KTINGHDSPHKSVQNHLN | 196.758 | 0.000 | 0.000 | 0.000 | 0.000 | 0.000 | 14.557 | –
5 | KTINGHDSPHKSVQTHQT | 77.309 | 0.237 | 0.062 | 0.116 | 0.000 | 0.000 | 7.519 | –
6 | KTINGHDSPHKSWVRQQT | 125.537 | 0.000 | 0.033 | 0.174 | 0.291 | 0.000 | 11.687 | –
7 | KTINGHDSPHKTGQNQPP | 77.357 | 0.000 | 0.149 | 0.096 | 0.000 | 0.000 | 8.865 | –
8 | KTINGHDSPHKTGQNQQK | 77.562 | 0.000 | 1.056 | 0.000 | 0.000 | 0.000 | 6.379 | –
9 | KTINGHESPHKSAQNRQT | 95.531 | 0.000 | 0.113 | 0.082 | 0.130 | 0.000 | 4.815 | –
10 | KTINGHESPHKSGQNIQP | 253.840 | 0.000 | 0.000 | 0.000 | 0.000 | 0.000 | 14.042 | –
11 | KTINGHESPHKSGQNQHS | 92.248 | 0.000 | 0.032 | 0.088 | 0.090 | 0.012 | 9.720 | –
12 | KTINGHESPHKSGQTQQI | 86.089 | 0.000 | 0.222 | 0.024 | 0.000 | 0.000 | 3.989 | –
13 | KTINGHESPHKSGRSQQT | 97.106 | 0.000 | 3.329 | 0.181 | 0.000 | 0.022 | 9.378 | –
14 | KTINGHGSPHSKAQNPQT | 83.478 | 0.000 | 0.288 | 0.260 | 0.000 | 0.219 | 11.001 | –
15 | KTINGIGSPHSKAQNLGT | – | – | – | – | – | – | – | Fold Enrichment relative to AAV9, DRG (NHP) [1, 7]: 0.000 fold; Fold Enrichment relative to AAV9, Brain (NHP) [1, 8]: 70.543 fold; Fold Enrichment relative to AAV9, Heart (NHP) [1, 9]: 0.071 fold; Fold Enrichment relative to AAV9, Liver DNA (NHP) [1, 10]: 0.135 fold; Fold Enrichment relative to AAV9, Liver RNA (NHP) [1, 11]: 0.000 fold; Fold Enrichment relative to AAV9, Muscle (NHP) [1, 12]: 0.000 fold; Fold Enrichment relative to AAV9, Brain (Mouse) (brain; [13]): 104.769 fold
16 | KTINGLGSPHSKSQNQQT | – | – | – | – | – | – | – | Fold Enrichment relative to AAV9, DRG (NHP) [1, 7]: 0.000 fold; Fold Enrichment relative to AAV9, Brain (NHP) [1, 8]: 62.170 fold; Fold Enrichment relative to AAV9, Heart (NHP) [1, 9]: 0.157 fold; Fold Enrichment relative to AAV9, Liver DNA (NHP) [1, 10]: 0.107 fold; Fold Enrichment relative to AAV9, Liver RNA (NHP) [1, 11]: 0.146 fold; Fold Enrichment relative to AAV9, Muscle (NHP) [1, 12]: 0.000 fold; Fold Enrichment relative to AAV9, Brain (Mouse) (brain; [13]): 64.139 fold
17 | KTINGNDSPHKSVQNHQT | 120.002 | 0.000 | 0.099 | 0.000 | 0.000 | 0.788 | 7.920 | –
18 | KTINGNGSPHSKAQNHQA | 88.274 | 0.000 | 0.024 | 0.041 | 0.000 | 0.000 | 36.754 | –
19 | KTINGNGSPHSKAQNPLT | 75.269 | 0.000 | 0.000 | 0.000 | 0.366 | 0.000 | 53.583 | Fold Enrichment relative to AAV9, DRG (NHP) [1, 7]: 0.000 fold; Fold Enrichment relative to AAV9, Brain (NHP) [1, 8]: 75.269 fold; Fold Enrichment relative to AAV9, Heart (NHP) [1, 9]: 0.000 fold; Fold Enrichment relative to AAV9, Liver DNA (NHP) [1, 10]: 0.000 fold; Fold Enrichment relative to AAV9, Liver RNA (NHP) [1, 11]: 0.366 fold; Fold Enrichment relative to AAV9, Muscle (NHP) [1, 12]: 0.000 fold; Fold Enrichment relative to AAV9, Brain (Mouse) (brain; [13]): 53.583 fold
20 | KTINGNGSPHSKSQNQHT | – | – | – | – | – | – | – | Fold Enrichment relative to AAV9, Brain (NHP) ([1]; NGS fold-enrichment of matured AAV capsid variants, NHP brain, RNA): 51.379 fold; Fold Enrichment relative to AAV9, DRG (NHP) ([1]; NHP DRG): 0.000 fold; Fold Enrichment relative to AAV9, Heart (NHP) ([1]; NHP heart): 0.054 fold; Fold Enrichment relative to AAV9, Liver DNA (NHP) ([1]; NHP liver, DNA): 0.082 fold; Fold Enrichment relative to AAV9, Liver RNA (NHP) ([1]; NHP liver, RNA): 0.000 fold; Fold Enrichment relative to AAV9, Muscle (NHP) ([1]; NHP muscle): 0.000 fold; Fold Enrichment relative to AAV9, Brain (Mouse) (brain; mouse brain): 56.614 fold
21 | KTINGPDSPHKIGQNQQS | 85.726 | 0.000 | 0.055 | 0.063 | 0.000 | 0.171 | 10.055 | –
22 | KTINGPGSPHSKAHNQQT | 115.742 | 0.146 | 0.000 | 0.513 | 0.000 | 0.235 | 52.508 | Fold Enrichment relative to AAV9, DRG (NHP) [1, 7]: 0.146 fold; Fold Enrichment relative to AAV9, Brain (NHP) [1, 8]: 115.742 fold; Fold Enrichment relative to AAV9, Heart (NHP) [1, 9]: 0.000 fold; Fold Enrichment relative to AAV9, Liver DNA (NHP) [1, 10]: 0.513 fold; Fold Enrichment relative to AAV9, Liver RNA (NHP) [1, 11]: 0.000 fold; Fold Enrichment relative to AAV9, Muscle (NHP) [1, 12]: 0.235 fold; Fold Enrichment relative to AAV9, Brain (Mouse) (brain; [13]): 52.508 fold
